Source: ChEMBL document CHEMBL3046634, “Synthesis of some 1,3,4-thiadiazole derivatives as inhibitors of Entamoeba histolytica” (Med Chem Res, 2013)

Tests used:
Entamoeba histolytica = assay: Antiamoebic activity against trophozoites of Entamoeba histolytica HM-1:IMSS after 72 hr by eosin stain-based spectrophotometric analysis; type: functional, organism-based
MCF7 = assay: Cytotoxicity against Homo sapiens (human) MCF7 cells after 48 hr by MTT assay; type: cell-based; details: MCF7, 48 h

Row | Compound | IC50 (Entamoeba histolytica) [µM] | IC50 (MCF7) [µM]
1 | Nc1nnc(-c2ccccc2)s1 | 5.46 | –
2 | Cc1ncc([N+](=O)[O-])n1CCO [METRONIDAZOLE] | – | > 250
